Marks after values point to notes of the source that are not given here.
Assay: Biodistribution of [^211At]1 and [^125I]2 in normal mice with ibuprofen or IPBA as albumin-binding inhibitor
Conditions: 4 h after administration
Protocol: To evaluate the effects of albumin-binding inhibitors in normal mice, [^211At]1 (37 kBq) and [^125I]2 (37 kBq) were intravenously coadministered. […] The total blood albumin (1.1 µmol) in normal mice was calculated from the albumin concentration (3.0 g/dL ≈ 455 µM) in blood, which was informed from Japan SLC, Inc., total blood volume (2.5 mL) as 8% of body weight, and the molecular weight of albumin as 66,000 g/mol. […]
Table S1. Biodistribution of radioactivity 4 h after administration of [^211At]1 and [^125I]2 in normal mice.

[1] = IPBA 10 eq at 1 h postinjection
[2] = ibuprofen 10 eq at 1 h postinjection

## Ga-DOTA-K([^125I]IPBA)-c(RGDfK) [[^125I]2]
IPBA 2 eq at 1 h postinjection
  Radioactivity, Blood: 7.26 (0.34)^ ***, a, b % injected activity per gram
  Radioactivity, Bone: 1.22 (0.11) ^a, b % injected activity per gram
  Radioactivity, Brain: 0.20 (0.03)^ *,^ a % injected activity per gram
  Radioactivity, Heart: 2.49 (0.13)^ **,^ a % injected activity per gram
  Radioactivity, Kidney: 3.46 (0.17)^ * % injected activity per gram
  Radioactivity, L. intestine: 1.14 (0.31)^ ** % injected activity per gram
  Radioactivity, Liver: 1.58 (0.12)^ a % injected activity per gram
  Radioactivity, Lung: 4.22 (0.49)^ ***,^ a, b % injected activity per gram
  Radioactivity, Muscle: 1.02 (0.07)^ *,^ a, b % injected activity per gram
  Radioactivity, Neck: 0.32 (0.10) % injected activity
  Radioactivity, Pancreas: 1.41 (0.10)^ *,^ a, b % injected activity per gram
  Radioactivity, S. intestine: 1.28 (0.03)^ **,^ a % injected activity per gram
  Radioactivity, Spleen: 1.15 (0.11)^ *,^ a, b % injected activity per gram
  Radioactivity, Stomach: 1.21 (0.07)^ * % injected activity
IPBA 5 eq at 1 h postinjection
  Radioactivity, Blood: 2.06 (0.24)^ ***, a, b, c % injected activity per gram
  Radioactivity, Bone: 0.73 (0.06)^ **,^ a, b, c % injected activity per gram
  Radioactivity, Brain: 0.15 (0.02)^ a % injected activity per gram
  Radioactivity, Heart: 0.83 (0.09)^ **,^ a, b, c % injected activity per gram
  Radioactivity, Kidney: 3.52 (0.08)^ *, b % injected activity per gram
  Radioactivity, L. intestine: 0.87 (0.25) % injected activity per gram
  Radioactivity, Liver: 1.20 (0.12)^ *,^ a, b, c % injected activity per gram
  Radioactivity, Lung: 1.92 (0.16)^ **,^ a, b, c % injected activity per gram
  Radioactivity, Muscle: 0.47 (0.04)^ **,^ a, b, c % injected activity per gram
  Radioactivity, Neck: 0.07 (0.02)^ a % injected activity
  Radioactivity, Pancreas: 0.79 (0.10)^ **,^ a, b, c % injected activity per gram
  Radioactivity, S. intestine: 1.33 (0.14) % injected activity per gram
  Radioactivity, Spleen: 0.93 (0.58)^ a, b % injected activity per gram
  Radioactivity, Stomach: 1.11 (0.34)^ **,^ a % injected activity
[1]
  Radioactivity, Blood: 0.95 (0.12)^ **, a, b, c, d % injected activity per gram
  Radioactivity, Bone: 0.77 (0.07)^ **,^ a, b, c % injected activity per gram
  Radioactivity, Brain: 0.15 (0.03)^ a % injected activity per gram
  Radioactivity, Heart: 0.58 (0.10)^ ***,^ a, b, c % injected activity per gram
  Radioactivity, Kidney: 3.60 (0.43) % injected activity per gram
  Radioactivity, L. intestine: 0.98 (0.31) ^*, b % injected activity per gram
  Radioactivity, Liver: 0.84 (0.06)^ a, b, c % injected activity per gram
  Radioactivity, Lung: 1.33 (0.09)^ ***,^ a, b, c % injected activity per gram
  Radioactivity, Neck: 0.03 (0.02)^ b, c, d % injected activity
  Radioactivity, Pancreas: 0.60 (0.15)^ a, b, c, d % injected activity per gram
  Radioactivity, S. intestine: 1.17 (0.13)^ a % injected activity per gram
  Radioactivity, Spleen: 1.00 (0.19)^ **,^ a, b % injected activity per gram
  Radioactivity, Stomach: 0.94 (0.12)^ ** % injected activity
[2]
  Radioactivity, Blood: 10.19 (0.64)^ ***, a % injected activity per gram
  Radioactivity, Bone: 1.56 (0.16)^ a % injected activity per gram
  Radioactivity, Brain: 0.25 (0.05)^ a % injected activity per gram
  Radioactivity, Heart: 3.24 (0.29)^ * % injected activity per gram
  Radioactivity, Kidney: 3.10 (0.24) % injected activity per gram
  Radioactivity, L. intestine: 1.87 (0.66) ^* % injected activity per gram
  Radioactivity, Liver: 1.81 (0.24)^ a % injected activity per gram
  Radioactivity, Lung: 6.02 (0.99)^ *,^ a % injected activity per gram
  Radioactivity, Muscle: 1.19 (0.07) % injected activity per gram
  Radioactivity, Neck: 0.36 (0.12)^ *,^ a % injected activity
  Radioactivity, Pancreas: 1.78 (0.09) % injected activity per gram
  Radioactivity, S. intestine: 1.49 (0.12)^ * % injected activity per gram
  Radioactivity, Spleen: 1.49 (0.18)^ a % injected activity per gram
  Radioactivity, Stomach: 1.16 (0.03)^ * % injected activity
Vehicle at 1 h postinjection
  Radioactivity, Blood: 13.28 (0.80)^ *** % injected activity per gram
  Radioactivity, Bone: 1.84 (0.12) % injected activity per gram
  Radioactivity, Brain: 0.38 (0.09) % injected activity per gram
  Radioactivity, Heart: 4.05 (0.98) % injected activity per gram
  Radioactivity, Kidney: 3.32 (0.15) % injected activity per gram
  Radioactivity, L. intestine: 1.59 (0.38) % injected activity per gram
  Radioactivity, Liver: 2.51 (0.07) % injected activity per gram
  Radioactivity, Lung: 7.38 (0.61)^ * % injected activity per gram
  Radioactivity, Muscle: 1.28 (0.06) % injected activity per gram
  Radioactivity, Neck: 0.13 (0.03)^ * % injected activity
  Radioactivity, Pancreas: 1.81 (0.05) % injected activity per gram
  Radioactivity, S. intestine: 1.94 (0.14)^ ** % injected activity per gram
  Radioactivity, Spleen: 2.11 (0.08) % injected activity per gram
  Radioactivity, Stomach: 0.80 (0.12) % injected activity

## Ga-DOTA-K([^211At]APBA)-c(RGDfK) [[^211At]1]
IPBA 2 eq at 1 h postinjection
  Radioactivity, Blood: 8.33 (0.29)^ a, b % injected activity per gram
  Radioactivity, Bone: 1.35 (0.06)^ a % injected activity per gram
  Radioactivity, Brain: 0.24 (0.04)^ a % injected activity per gram
  Radioactivity, Heart: 2.90 (0.09) ^a, b % injected activity per gram
  Radioactivity, Kidney: 3.36 (0.20) % injected activity per gram
  Radioactivity, L. intestine: 1.53 (0.39) % injected activity per gram
  Radioactivity, Liver: 1.68 (0.15)^ a % injected activity per gram
  Radioactivity, Lung: 4.96 (0.40)^ a, b % injected activity per gram
  Radioactivity, Muscle: 1.16 (0.09) % injected activity per gram
  Radioactivity, Neck: 0.23 (0.07)^ a % injected activity
  Radioactivity, Pancreas: 1.55 (0.15)^ a, b % injected activity per gram
  Radioactivity, S. intestine: 1.47 (0.05) % injected activity per gram
  Radioactivity, Spleen: 1.54 (0.18) % injected activity per gram
  Radioactivity, Stomach: 1.84 (0.32) % injected activity
IPBA 5 eq at 1 h postinjection
  Radioactivity, Blood: 3.46 (0.33)^ a, b, c % injected activity per gram
  Radioactivity, Bone: 0.95 (0.08)^ a, b % injected activity per gram
  Radioactivity, Brain: 0.16 (0.01)^ a % injected activity per gram
  Radioactivity, Heart: 1.38 (0.13)^ a, b, c % injected activity per gram
  Radioactivity, Kidney: 3.67 (0.10) ^b % injected activity per gram
  Radioactivity, L. intestine: 0.84 (0.22) ^b % injected activity per gram
  Radioactivity, Liver: 1.35 (0.16)^ a, b, c % injected activity per gram
  Radioactivity, Lung: 2.84 (0.27)^ a, b, c % injected activity per gram
  Radioactivity, Muscle: 0.62 (0.04)^ a, b, c % injected activity per gram
  Radioactivity, Neck: 0.08 (0.02)^ a, b % injected activity
  Radioactivity, Pancreas: 1.03 (0.15)^ a, b, c % injected activity per gram
  Radioactivity, S. intestine: 1.35 (0.13) % injected activity per gram
  Radioactivity, Spleen: 1.19 (0.73)^ a % injected activity per gram
  Radioactivity, Stomach: 1.45 (0.45)^ a, b % injected activity
[1]
  Radioactivity, Blood: 1.56 (0.20)^ a, b, c, d % injected activity per gram
  Radioactivity, Bone: 0.98 (0.12)^ a, b, c % injected activity per gram
  Radioactivity, Brain: 0.14 (0.02)^ a % injected activity per gram
  Radioactivity, Heart: 0.78 (0.10)^ a, b, c, d % injected activity per gram
  Radioactivity, Kidney: 3.77 (0.50)^ b % injected activity per gram
  Radioactivity, L. intestine: 0.88 (0.27)^ b % injected activity per gram
  Radioactivity, Liver: 0.80 (0.07)^ a, b, c % injected activity per gram
  Radioactivity, Lung: 1.88 (0.12)^ a, b, c % injected activity per gram
  Radioactivity, Muscle: 0.42 (0.03)^ a, b, c, d % injected activity per gram
  Radioactivity, Neck: 0.03 (0.02)^ b, c, d % injected activity
  Radioactivity, Pancreas: 0.66 (0.17)^ a, b, c, d % injected activity per gram
  Radioactivity, S. intestine: 1.14 (0.08)^ a, b, d % injected activity per gram
  Radioactivity, Spleen: 1.22 (0.17)^ a % injected activity per gram
  Radioactivity, Stomach: 1.30 (0.20)^ d % injected activity
[2]
  Radioactivity, Blood: 10.82 (0.58) ^a % injected activity per gram
  Radioactivity, Bone: 1.57 (0.18)^ a % injected activity per gram
  Radioactivity, Brain: 0.26 (0.03) % injected activity per gram
  Radioactivity, Heart: 3.49 (0.36) % injected activity per gram
  Radioactivity, Kidney: 3.03 (0.24) % injected activity per gram
  Radioactivity, L. intestine: 2.32 (0.57) % injected activity per gram
  Radioactivity, Liver: 1.87 (0.31)^ a % injected activity per gram
  Radioactivity, Lung: 6.44 (1.14) % injected activity per gram
  Radioactivity, Muscle: 1.28 (0.15) % injected activity per gram
  Radioactivity, Neck: 0.18 (0.03)^ a % injected activity
  Radioactivity, Pancreas: 1.85 (0.12) % injected activity per gram
  Radioactivity, S. intestine: 1.58 (0.15) % injected activity per gram
  Radioactivity, Spleen: 1.47 (0.29)^ a % injected activity per gram
  Radioactivity, Stomach: 1.57 (0.21) % injected activity
Vehicle at 1 h postinjection
  Radioactivity, Blood: 14.03 (0.79) % injected activity per gram
  Radioactivity, Bone: 1.88 (0.10) % injected activity per gram
  Radioactivity, Brain: 0.37 (0.11) % injected activity per gram
  Radioactivity, Heart: 3.83 (0.30) % injected activity per gram
  Radioactivity, Kidney: 3.19 (0.20) % injected activity per gram
  Radioactivity, L. intestine: 1.52 (0.35) % injected activity per gram
  Radioactivity, Liver: 2.51 (0.20) % injected activity per gram
  Radioactivity, Lung: 7.69 (0.63) % injected activity per gram
  Radioactivity, Muscle: 1.26 (0.09) % injected activity per gram
  Radioactivity, Neck: 0.05 (0.01) % injected activity
  Radioactivity, Pancreas: 1.88 (0.10) % injected activity per gram
  Radioactivity, S. intestine: 1.85 (0.16) % injected activity per gram
  Radioactivity, Spleen: 2.02 (0.26) % injected activity per gram
  Radioactivity, Stomach: 0.80 (0.10) % injected activity

Reference: PMC11224111, “Optimizing the pharmacokinetics of an ^211At-labeled RGD peptide with an albumin-binding moiety via the administration of an albumin-binding inhibitor” (European Journal of Nuclear Medicine and Molecular Imaging, 2024)
